Results from US20230158040A1, “METHYLTHIONINIUM COMPOUNDS FOR USE IN THE TREATMENT OF HYPOXEMIA” (WisTa Laboratories Ltd., priority 2020, published 2023).

Tests used:
[1] = Oxygen saturation (SpO2) in clinical trial subjects with low oxygen saturation, pre-dose vs 4 hrs after a single dose; type: in vivo, human
Excerpt: The present inventors have used data available for patients participating in clinical trials to determine whether LMT enhances oxygen saturation of blood. Data were available for 18 subjects with oxygen saturation <94% at baseline (lower limit of normal range is
These patients recorded a variety of respiratory or other conditions of various degrees of severity which it was suspected may have contributed to the detected hypoxemia, including sleep apnoea, insomnia (which may be indicative of Paroxysmal nocturnal dyspnea or paroxysmal nocturnal dyspnoea), asbestosis, oedema, asthma, bronchitis, allergies, angioedema, pneumonia, acute myocardial infarction/ hypertension, Coronary artery disease with angioplasty and stent insertion, transient ischaemic attacks (TIA), hypothyroidism, diabetes, syncope, tachycardia and sepsis. […]

metHb = metHb levels in clinical trial subjects receiving LMTM; type: in vivo, human
Excerpt: In order to understand this effect further the inventors investigated whether the low oxygen saturation in these patients is due to elevation in metHb levels. There was no difference in metHb levels at baseline between subjects with low SpO2 and those with SpO2 levels in the normal range.
Therefore, LMTM is able to act on haemoglobin over a range of doses in such a way as to enhance oxygen saturation in the blood by a novel mechanism unrelated to its known effects on metHb.

[2] = LMT at high concentrations, oral doses in the range 150-250 mg/day

Row | Structure (SMILES) | oxygen saturation at 4 hours ([1]; single dose of LMT at 4 mg and ~100 mg (mean of 75, 100, 125 mg), 18 subjects with oxygen saturation <94% at baseline, pre-dose vs 4 hrs post-dose) | metHb levels (metHb; LMTM at higher doses / high dosages over a period of time, FIG. 3) | SpO2 levels [1, 2] | metHb levels (metHb; [2])
1 | CN(C)c1ccc2c(c1)Sc1cc(N(C)C)ccc1N2 [LMTM, leuco-methylthioninium bis(hydromethanesulfonate)] | significantly increased | systematically increases | – | –
2 | CN(C)c1ccc2c(c1)Sc1cc(N(C)C)ccc1N2 [LMT] | – | – | increase SpO2 levels | measurable increase
